{
  "source": "patent US20150133434A1",
  "about": "“Compositions and Methods for Reactivating Latent Immunodeficiency Virus” (priority 2012, published 2015)",
  "key": {"[1]": {"system": "latent HIV (clone R7/E-/GFP) in Jurkat T cells", "test": "Reactivation of latent HIV in polyclonal Jurkat T cells (clone R7/E-/GFP), flow cytometry of GFP", "format": "cell-based, HIV-1", "protocol": "A polyclonal population of Jurkat T cells containing latent HIV (clone R7/E-/GFP) was treated with increasing amounts of JQ1. This viral clone contains a frameshift mutation in the viral Env gene to prevent viral spread and expresses GFP in the Nef open reading frame, which allows separation of actively infected GFP^+ from GFP^− cells by cell sorting. GFP^− cells, which are mostly uninfected but contain a small fraction of latently infected cells with silenced HIV transcription, were treated with JQ1. Activation of transcription was measured by flow cytometry of GFP. […] Stimulation of cells with JQ1 produced up to fivefold more GFP-expressing cells than control-treated cells.\nHIV clones R7/E-/GFP and NL4-3/E-/GFP-IRES-nef were derived from pR7-GFP and pNLENG1-EGFP by mutating the Env gene by inserting an early stop codon in the NdeI site. […]. Jurkat cells were spininfected with 25 ng of p24 per 10^6 cells, and GFP^− cells where collected in two rounds of cell sorting 5 and 15 days after infection. The expanded population of GFP^− cells, composed of uninfected and latently infected cells, was seeded in 96-well plates and treated with the indicated concentration of drugs in duplicates. The percentage of GFP^+ cells was detected after 24 h at the MACSQuant VYB FACS analyzer. Data are expressed as the mean percentage of GFP^+ cells, subtracting the average percentage of spontaneous GFP-reactivation in the untreated samples. (A) Jurkat cells containing latent R7/E-/GFP virus were treated with JQ1 or (R)-JQ1 in combination with Prostratin (0.5 μM), SAHA (2.5 μM), TNFα (1 ng/μl), or control at the indicated concentrations for 18 h, followed by flow cytometry analysis. […] Results represent average of two independent experiments. All treatments in (A) and (B) on the X axis are in μM."}, "[2]": {"system": "latent LTR-Tat-IRES-GFP construct in J-Lat A2 cells", "test": "J-Lat A2 cells (LTR-Tat-IRES-GFP), flow cytometry of GFP", "format": "cell-based, HIV-1", "protocol": "HEK293T and Jurkat cells were obtained from the American Type Culture Collection. J-Lat (clones A2 and A72) cell lines were described. HEK293T cells were cultured in DMEM supplemented with 10% FBS, 1% L-glutamine and 1% penicillin-streptomycin (Life Technologies). Jurkat and J-Lat cells were cultured in RPMI supplemented with 10% FBS, 1% L-glutamine, and 1% penicillin-streptomycin. TNFα (Sigma-Aldrich) was used at concentrations of 0.25 or 1 ng/ml. Human αCD3 and αCD28 (BD Biosciences) were used at concentrations of 3 and 1 μg/ml, respectively. Prostratin (Sigma) was used at a suboptimal concentration of 0.5 μM, and SAHA (NCI Chemical Carcinogen Repository, Midwest Research Institute) was used at 2.5 μM.\nTo determine if BET inhibition specifically activates Tat-dependent transcription, a J-Lat cell line was utilized that harbored a latent lentiviral construct expressing Tat with GFP from the HIV LTR (clone A2; LTR-Tat-IRES-GFP). […] Stimulation with JQ1 yielded up to ninefold more GFP-expressing cells than control-treated cells, and a 22-fold increase was observed when cells were co-treated with JQ1 and low doses of TNFα (FIG. 21A). […] Here, an up to 22-fold increase in GFP^+ cells resulted from JQ1 treatment alone and a 45-fold increase when TNFα was added with JQ1 (FIG. 21B). Both cell lines were also treated with prostratin and SAHA (FIG. 27).\nTwo latent J-Lat cell lines A2 (containing a LTR-Tat-IRES-GFP construct) or A72 (containing a LTR-GFP construct) were treated with JQ1 or (R)-JQ1 in combination with TNFα or control at the indicated concentrations for 18 h, followed by flow cytometry analysis. […] Data represent average (±SD) of three independent experiments. All treatments in (A) and (B) on the X axis are in μM."}, "[3]": {"system": "latent HIV-1 in Bcl-2-transduced resting CD4+ T cells", "format": "cell-based", "settings": "24-72 h, average of two donors"}, "[4]": {"system": "latent DHIV-GFP, X4 virus in nonpolarized T helper cells", "test": "Primary T-cell model of latency, ex vivo differentiated nonpolarized CD4+ T cells", "format": "cell-based, HIV-1", "settings": "96 h after compound addition; minor effect only at highest doses"}},
  "note": "Entries after “also recorded” stand apart in the source; their conditions may differ.",
  "data": [
    {"smiles": "Cc1sc2c(c1C)C(c1ccc(Cl)cc1)=N[C@@H](CC(=O)OC(C)(C)C)c1nnc(C)n1-2", "note": "[JQ1, tert-Butyl 2-((6S)-4-(4-chlorophenyl)-2,3,9-trimethyl-6H-thieno[3,2-f][1,2,4]triazolo[4,3-a][1,4]diazepin-6-yl)acetate]", "values": [
      {"measurement": "GFP-expressing cells relative to control-treated cells", "setting": "[1]; JQ1 alone", "result": "up to fivefold"},
      {"measurement": "effect of adding JQ1 with SAHA", "setting": "[1]; co-treatment with SAHA 2.5 μM, FIG. 20A, B (both viral clones)", "result": "no additive or synergistic effects"},
      {"measurement": "effect of co-treatment with TNFα on the JQ1 effect", "setting": "[1]; co-treatment with TNFα, FIG. 20A, B (both viral clones)", "result": "very modest enhancement"},
      {"measurement": "effect of adding JQ1 with prostratin", "setting": "[1]; co-treatment with prostratin 0.5 μM, FIG. 20A, B (both viral clones)", "result": "Enhanced activation"},
      {"measurement": "reactivation of HIV-1 (GFP+ cells)", "setting": "[1]; compound alone, increasing amounts", "result": "reactivated HIV-1 in a dose-dependent manner"},
      {"measurement": "activation of HIV transcription (GFP)", "setting": "[2]; 18 h", "result": "activated HIV transcription in a dose-dependent manner; also recorded: reactivated HIV-1 in a dose-dependent manner; also recorded: increased GFP expression"},
      {"measurement": "effect of adding SAHA to JQ1", "setting": "[2]; FIG. 27", "result": "only a very modest increase"},
      {"measurement": "effect of adding prostratin to JQ1", "setting": "[2]; FIG. 27", "result": "enhanced the JQ1 effect"},
      {"measurement": "GFP-expressing cells relative to control-treated cells", "setting": "[2]; JQ1 alone", "result": "up to ninefold"},
      {"measurement": "increase in GFP-expressing cells", "setting": "[2]; JQ1 with low doses of TNFα", "result": 22, "unit": "fold"},
      {"measurement": "reactivation of latent HIV-1 relative to costimulation with αCD3 and αCD28 antibodies", "setting": "[3]", "result": "~14", "unit": "%"},
      {"measurement": "reversal of latency (GFP)", "setting": "[4]", "result": "minor activatory effect"}
    ]}
  ]
}
